The target of this assay is Lpg2603 10-C (Legionella pneumophila, UniProt Q5ZSB6). The assay is described as follows: biochemical.
Lpg2603 10-C, sequence (Q5ZSB6 10-434 limits assumed): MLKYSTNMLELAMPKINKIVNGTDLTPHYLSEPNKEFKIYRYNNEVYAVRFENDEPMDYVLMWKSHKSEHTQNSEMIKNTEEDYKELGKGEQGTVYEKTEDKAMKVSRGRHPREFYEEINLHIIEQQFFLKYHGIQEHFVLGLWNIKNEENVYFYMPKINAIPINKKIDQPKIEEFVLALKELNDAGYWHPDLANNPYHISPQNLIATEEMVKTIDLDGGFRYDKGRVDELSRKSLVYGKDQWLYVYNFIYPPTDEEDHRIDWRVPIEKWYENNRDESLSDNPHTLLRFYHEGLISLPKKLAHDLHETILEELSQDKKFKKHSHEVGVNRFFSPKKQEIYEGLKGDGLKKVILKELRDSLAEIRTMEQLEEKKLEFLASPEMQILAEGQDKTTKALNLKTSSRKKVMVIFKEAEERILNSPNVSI

As for `O=P(O)(O)O[C@H]1[C@H](OP(=O)(O)O)[C@@H](OP(=O)(O)O)[C@H](OP(=O)(O)O)[C@@H](OP(=O)(O)O)[C@H]1OP(=O)(O)O` [inositol hexakisphosphate], the Kd was ~315 µM.

What is called Kd is the equilibrium constant for the complex coming apart. High values mean lower affinity, low ones higher affinity.

The values above are taken from article doi:10.1101/2020.02.18.954925v1 (biorxiv, 2020).
